Source: patent publication US20180066004A9, “MITOCHONDRIA-TARGETING PLATINUM(IV) PRODRUG” (priority 2014, published 2018)

Legend:
[1] = Platin-M ability to form micelles (nanoprecipitation, DLS); format: physicochemical; settings: DMF solution of Platin-M into water
Text: Morphology of T-Platin-M and NT-Platin-M-NPs was investigated using transmission electron microscopy (TEM) (FIG. 4A). […] Percent loading of Platin-M varied between 6 to 27% based on the percent feed with respect to polymer feed (FIG. 4A, Tables S1 and S2). Given the amphiphilic character of Platin-M with two cationic TPP head groups and lipophilic DBCO moieties, we questioned whether the high loading of Platin-M is due to formation of self-micelles.
Determination of Platin-M Ability to Form Micelles: Platin-M was dissolved in DMF to a final concentration of 1.5 mg/mL. This solution was added drop wise slowly into vigorously stirring nanopure water (10 mL) and stirred at room temperature for 3 h. This solution was then filtered and washed through Amicon filters with a MW cutoff of 100 kDa 3 times in order to ensure the removal of all residual organic solvent. Finally, the NPs were resuspended in nanopure water (1 mL) and filtered through a 0.2 μm filter. The resulting suspension was characterized by DLS.

[2] = tested on: cisplatin resistant A2780/CP70 cells; experiment: XF24 MitoStress assay (OCR), A2780/CP70; format: cell-based, human; settings: 10 μM with respect to Pt, 12 h; for ATP-linked respiration on addition of oligomycin / basal OCR levels versus control cells / stimulation of mitochondrial respiration with FCCP after oligomycin: A2780/CP70
Text: (§1) Mitochondrial Toxicity of T-NP. […] Many TPP-based small molecules were described to disrupt ΔΨm, uncouple OXPHOS, and inhibit mitochondrial respiration. Preclinical mitochondrial toxicology tests can have high positive predictive value. We examined Empty-T-NP, Empty-nontargeted-NPs (NT-NP), and DBCO-TPP induced changes in mitochondrial respiration of prostate cancer (PCa) PC3 cells and cisplatin resistant ovarian cancer A2780/CP70 cells as a measure of mitochondrial toxicity (FIG. 3B). The oxygen consumption rate (OCR) of cells is an important indicator of normal mitochondrial functions. Thus, OCR can be used as a parameter to study TPP-induced mitochondrial toxicity.
(§2) After 12 h, OCR was measured and the effects of metabolic modulators oligomycin, carbonyl cyanide 4-(trifluoromethoxy)phenylhydrazone (FCCP), antimycin A, and rotenone allowed determination of multiple parameters of mitochondrial function (FIG. 3B). […] Several parameters linked to mitochondrial respiration; spare respiratory capacity, coupling efficiency, basal respiration, ETC accelerator response, and ATP coupler response were calculated from the OCR (pMoles/min) vs. Time (min) traces in FIG. 3B.
(§3) Mitochondrial Bioenergetics. We next investigated basal respiration, coupling efficiency, and spare respiratory capacity in response to Platin-M and its NPs using a XF24 MitoStress assay kit (FIG. 5). To determine whether accumulation of Platin-M inside the mitochondrial matrix of PC3 or A2780/CP70 cells inhibited mitochondrial respiration, we measured oxygen consumption rates (OCRs) in these cells as a way of assessing OXPHOS. […] PC3 or A2780/CP70 cells were treated with Platin-M, cisplatin, T-Platin-M-NPs, NT-Platin-M-NPs for 12 h.
(§4) Mito-stress Test Analysis: Different parameters of respiration: basal respiration, coupling efficiency, and spare respiratory capacity were investigated by using Seahorse XF-24 cell Mito Stress Test Kit. Prior to the assay, XF sensor cartridges were hydrated. To each well of an XF utility plate, 1 mL of Seahorse Bioscience calibrant was added and the XF sensor cartridges were placed on top of the utility plate, and kept at 37° C. incubator without CO2 for a minimum of 12 h. PC3, A2780-CP70, SH-SY5Y, and H9C2 (FIG. S18) cells were cultured in XF24-well cell culture microplates (Seahorse Bioscience) at a density of 2.5×10^4 cells/well (except for H9C2, cell density of this cell line: 5×10^4 cells/well) (0.32 cm2) in 200 μL growth medium and then incubated for 24 h at 37° C. in 5% CO2 atmosphere. […] After 12 h, all but 50 μL of the culture medium was removed from each well and the cells were rinsed two times with 500 μL of XF stress test glycolysis optimization medium pre-warmed to 37° C. and finally 450 μL of glucose depleted optimization medium was added to each well and the plate was placed at 37° C. without CO2 for 1 h prior to assay. Different parameters of respiration were calculated by subtracting the average respiration rates before and after the addition of the electron transport inhibitors oligomycin (1.0 μM), trifluorocarbonylcyanide phenylhydrazone or FCCP (1.0 μM), an ionophore that is a mobile ion carrier, and a mixture of antimycin-A (1.0 μM) which is a complex III inhibitor and rotenone (1.0 μM), a mitochondrial inhibitor that prevents the transfer of electrons from the Fe-S center in Complex I to ubiquinone. The parameters calculated included: basal respiration (baseline respiration minus antimycin-A post injection respiration), ATP turnover (baseline respiration minus oligomycin post injection respiration), maximal respiratory capacity (FCCP stimulated respiration minus antimycin-A post injection respiration) and reserve respiratory capacity (FCCP stimulated respiration minus baseline respiration). Test articles on each well had four replicates (data not shown).

mtDNA = experiment: mtDNA-Pt adduct quantification; format: cell-based, human; settings: treated PC3 cells
Experimental: (§5) This might be due to the fact that for T-NP system, Platin-M needs to be released from the NPs prior to reduction to cisplatin and subsequent mtDNA interaction and all Platin-M might not have released from the NPs during the course of this experiment, mtDNA isolation was carried out after 12 h which corresponds to only ˜50% of Platin-M will be released from T-NPs (FIG. 4B).
(§6) mtDNA-Pt and nDNA-Pt Adduct Quantification: The mitochondria and nuclei were isolated according to protocol mentioned before. These fractions were further fractionated in order to isolate mitochondrial and genomic DNA, respectively. For mitochondrial DNA (mtDNA), the freshly isolated mitochondria were re-suspended in 35 μL of mitochondrial lysis buffer. To this, 5 μL of the enzyme mix was added. This was incubated at 50° C. in water bath until the solution turned clear (˜1 h). To this, 100 μL of absolute ethanol was added and the resulting solution was incubated for 10 min at −20° C. […] The resulting solution was quantified for the amount and purity of DNA by UV-Vis spectroscopy (260/280 nm) and the amount of Pt by ICP-MS. […] Reprecipitation with 70% ethanol in nanopure H2O was performed until the ratio of the absorbances at 260 and 280 nm was […]. […] The resulting solution was quantified for the amount of DNA by UV-Vis spectroscopy (260/280 nm) and the amount of Pt by ICP-MS.

PC3 cells = experiment: XF24 MitoStress assay (OCR), PC3; format: cell-based, human; settings: 10 μM with respect to Pt, 12 h
Text: as §1, §2, §3, §4

[3] = Electrochemistry of Platin-M (redox potential); format: physicochemical; settings: 1 mM in 20% DMF-PBS, 0.1 M KCl, 25° C.
Text: We recently developed a cycloaddition approach to introduce numerous functionalities on to Pt(IV) with high efficiency by keeping in mind that copper(I) based click chemistry can also cause reduction of Pt(IV). A TPP moiety was introduced on dibenzocyclooctyne (DBCO) derivative to result DBCO-TPP (FIG. 2, FIGS. S1-S4). A strain-promoted alkyne-azide cycloaddition (SPAAC) reaction between an azide-Pt(IV) precursor Platin-Az (Pathak, R. K., et al. Chem Eur J DOI: 10.1002/chem.201402573) recently developed by us and DBCO-TPP resulted Platin-M with high efficiency (FIG. 2). The prodrug Platin-M was characterized using microanalysis and spectroscopic techniques (FIGS. S5-S10). Feasible cellular reduction of Pt(IV) prodrug is required to release active cisplatin.
Electrochemistry of Platin-M: Electrochemical measurements were made at 25° C. on an analytical system model CHI 920c potentiostat from CH Instruments, Inc. (Austin, Tex.). A conventional three-electrode set-up comprising a glassy carbon working electrode, platinum wire auxiliary electrode, and an Ag/AgCl (3M KCl) reference electrode was used for electrochemical measurements. The electrochemical data were uncorrected for junction potentials. KCl was used as a supporting electrolyte. Platin-M (1 mM) solutions were prepared in 20% DMF-phosphate buffered saline (PBS) of pH 6.0 and 7.4 with 0.1 M KCl and voltammograms were recorded at different scan rates (data not shown).

[4] = tested on: human mesenchymal stem cells (hMSCs)
Experimental: (§7) PC3 cells (2000 cells/well), A2780/CP70 cells (2000 cells/well), SHSY-5Y (2000 cells/well), and MSC (2000 cells/well) were plated on a 96 well plate and allowed to grow overnight. The media was changed and increasing concentrations of each formulation was added. […] Control values were set at 0% cytotoxicity or 100% cell viability.

[5] = tested on: human neuroblastoma SH-SY5Y cell line; experiment: MTT cytotoxicity assay, SH-SY5Y; format: cell-based; settings: free drugs 72 h, NPs media changed after 12 h plus 60 h
Experimental: (§8) In vitro cytotoxicity of Platin-M, T-Platin-M, and NT-Platin-M was assessed by the 3-(4,5-dimethylthiazol-2-yl)-2,5-diphenyltetrazolium bromide or MTT assay on PCa PC3 cell line, human neuroblastoma SH-SY5Y cell line, and cisplatin resistant A2780/CP70 ovarian cancer cell line (Table 1). The rationale behind the use of androgen independent PC3 cell line was the inherent resistance of these cells to cisplatin therapy due to enhanced repair of Pt-nDNA adducts by the NER, poor targeting, and androgen-independent PCa with reduced normal mtDNA acquire a more progressive phenotype by inducing mutations to nDNA.
as §7

nDNA = experiment: nDNA-Pt adduct quantification; format: cell-based, human; settings: treated PC3 cells, 12 h
Experimental: as §5, §6

PCa PC3 cell line = experiment: MTT cytotoxicity assay, PC3; format: cell-based, human; settings: free drugs 72 h, NPs media changed after 12 h plus 60 h
Experimental: as §8, §7

For `[NH2][Pt]([NH2])([Cl])([Cl])([O]C(=O)CCCCCn1nnc2c1-c1ccccc1CN(C(=O)CCNC(=O)CCCCC[P+](c1ccccc1)(c1ccccc1)c1ccccc1)c1ccccc1-2)[O]C(=O)CCCCC[n+]1n[nH]c2c1-c1ccccc1CN(C(=O)CCNC(=O)CCCCC[P+](c1ccccc1)(c1ccccc1)c1ccccc1)c1ccccc1-2` [Platin-M], which “PDI of particles from nanoprecipitation without polymer” value [1] is on record?
The value was 0.799.

What about the “Size of particles from nanoprecipitation without polymer” value [1] of the same compound?
The value was 941.6±589.5 nm.

And the “Zeta Potential of particles from nanoprecipitation without polymer” value [1]?
The value was −5.38±1.66 mV.

What about the “inhibition of mitochondrial respiration in A2780/CP70 cells compared to PC3 cells” value [2] of the same compound?
Its value is “to a greater extent”.

What about the “ATP-linked respiration on addition of oligomycin” value [2] of the same compound?
Its value is “less reduction”.

What about the “basal OCR levels versus control cells” value [2] of the same compound?
Its value is “less than control cells”.

What about the “stimulation of mitochondrial respiration with FCCP after oligomycin” value [2] of the same compound?
Its value is “no enhancement in OCR levels”.

What about the “mtDNA adduct compared to T-Platin-M-NP system” value (mtDNA; 12 h) of the same compound?
Its value is “marginally higher”.

What about the Pt-mtDNA adduct formation (mtDNA; mtDNA isolated after 12 h) of the same compound?
Its Pt-mtDNA adduct formation is “exhibited binding with mtDNA”.

What about the “ATP-linked respiration on addition of oligomycin” value (PC3 cells) of the same compound?
Its value is “less reduction”.

What about the “basal OCR levels versus control cells” value (PC3 cells) of the same compound?
The value was “less than control cells”.

And the “stimulation of mitochondrial respiration with FCCP after oligomycin” value (PC3 cells)?
Its value is “no enhancement in OCR levels”.

What about the “Redox potential vs. Ag/AgCl” value ([3]; pH 6.0) of the same compound?
The value was −0.369 V.

What about the “Redox potential vs. NHE” value ([3]; pH 6.0) of the same compound?
Its value is −0.269.

What about the “Redox potential vs. Ag/AgCl” value ([3]; pH 7.4) of the same compound?
The value was −0.376 V.

What about the “Redox potential vs. NHE” value ([3]; pH 7.4) of the same compound?
Its value is −0.275.

And the “toxicity in hMSCs less than in the resistant cells” value ([4]; human, 72 h)?
Its value is roughly 3 times.

What does the source list for `N.N.[Cl][Pt][Cl]` [Cisplatin, Cisdiamminedichloridoplatinum(II), reference compound]?
ATP-linked respiration on addition of oligomycin [2]: attenuated; basal OCR levels versus control cells [2]: did not show any changes; stimulation of mitochondrial respiration with FCCP after oligomycin [2]: comparable; ATP-linked respiration on addition of oligomycin (PC3 cells): attenuated; basal OCR levels versus control cells (PC3 cells): did not show any changes; stimulation of mitochondrial respiration with FCCP after oligomycin (PC3 cells): comparable; IC50 [5]: 19 µM; IC50 ([4]; hMSC, MTT, free drugs 72 h, NPs media changed after 12 h plus 60 h): 16.4 ± 0.5 µM; Pt-nDNA adduct formation (nDNA): much higher than the level of cisplatin adducts in mtDNA; IC50 (PCa PC3 cell line): 13.1 ± 0.1 µM
